Measurements reported in patent US20060018833A1, “Method and system for screening compounds for muscular and/or neurological activity in animals” (priority 2004, published 2006).

How the values were obtained:
[1] = test system: teleosts; assay: Electrically induced seizures in teleost fish, blocking by anticonvulsants; assay type: in vivo, teleost (Medaka); conditions: compound in the water, "(10-80 μM)" printed after phenytoin
From the text: Consistent electrical-induced seizures are achieved by optimizing both maximum voltage achieved, overall power delivered during relatively constant current. Electrodes are placed in the wells from above just prior to commencement of the test.
Convulsions are produced by the placing a circular array of 6 stainless steal wire electrodes (around 100 μm in outside diameter) around the perimeter of a single well in a 48 well plate. The electrodes are insulated to the tips on the side of the electrodes that face the inside of the well. In this way the fish is less likely to contact the metal of the electrode that faces the well wall. A seizure is evoked by the application of a constant duration pulse of a constant current sine wave oscillating voltage field. The amount of current applied depends on the electrical impedance of the arrangement. In general around 30 mA of current at around 70 RMS volts is sufficient to produce a reliable seizure in a 2-3 week old Medaka fish. During the pulse the output is randomly scrambled to opposing pairs of the six electrodes via a high voltage MUX circuit. The electronics to produce the above stimulation are apparent to person skilled at the art.
The application of sufficient electrical current to the water containing a fish will evoke a behavioral response. However, at a specific range of current/voltage settings (30-110 V; 20 mA-0.1 mA) an animal will have a seizure, experience a post-ictal period of quiescence and recover. […] Application of a battery of classic anticonvulsants known to block seizure generation in animals will block the expression of seizures in teleost.

[2] = test system: Medaka fish; assay: Chemically (PTZ) induced seizure activity in Medaka fish, anticonvulsant screen (FIG. 5); assay type: in vivo
Description: One embodiment of the screen for anticonvulsant activity in the presence of a chemical stimulus includess placing a single or plurality of adult (1 month) fish into each well of a 12 well plate. This well contains 4 ml of pure tank water with a defined pH (7.0 can be between 6-8), hardness (90 ppm). The test compounds are then applied to the wells in 12 concentrations ranging from 10 μM to 10 mM. The compounds are diluted from standard DMSO stock solutions stored in other multiwell plates. Test compounds are added as either tank water diluted solutions or as DMSO concentrates. […] The compounds are added to wells after the optical clarity (transmittance) of the well water is determined. Following addition of the compounds to the wells a second transmittance measure is made to determine if the compound has dropped out of solution at any of the concentrations. […] Highly insoluble compounds are solublized in cyclodextrins or mixed with wet fish food, dried and applied at a known amount to wells containing a fish that was not fed for a day.
Plates containing soluble compounds are covered with plastic tops from the manufacturer and placed in an incubator set around 27 degrees centigrade and an oxygen rich atmosphere. […] Fish are examined by the operator for deaths and they are scored as such.
Testing is performed in a visible light darkened, sound dampened room upon a highly diffused infrared light box. […] Excess or erratic activity is automatically determined by a computer algorhythim during a 20 minute control period. […]
The image sequence collected following the administration is examined by a computer program which determines a number of factors about the activity of the fish including orientation, location, distance traveled, and cross sectional area of the fish's silhouette. […] Activity levels reaching specific thresholds and the type of activity (circular swimming and erratic darting) are scored along with periods of quiescence. […] The latency to first seizure and the magnitude and frequency of seizures are scored for each well. […]

[3] = test system: zebrafish; assay: Determining convulsive dose of convulsant added to well water (zebrafish); assay type: in vivo
Description: To establish the minimum seizure threshold dose (CD50) for convulsant agents 5 ml of tank water is placed a single well of a 12-well plate. […] When the animal has acclimated to the new conditions, a solution containing convulsant (e.g. a 20 mM solution of pentylenetetrazol (PTZ) in tank water) is added to the well at a rate of 0.1 ml per minute. The amount of solution being added is constant. The behavior of the fish is then monitored continuously during the rest period beginning with the addition of the convulsant. At the point which the animal has a convulsion the addition is stopped and the animal removed. […] This dose is considered the convulsive dose (>97%) for teleost.

[4] = test system: Medaka; assay: Determining convulsive dose of convulsant added to well water (Medaka); assay type: in vivo; conditions: 20 mM PTZ solution added at 0.1 ml per minute to 5 ml tank water
Description: To establish the minimum seizure threshold dose (CD50) for convulsant agents 5 ml of tank water is placed a single well of a 12-well plate. A single juvenile teleost is placed in the well and allowed to acclimate for a period of time in a darkened room. When the animal has acclimated to the new conditions, a solution containing convulsant (e.g. a 20 mM solution of pentylenetetrazol (PTZ) in tank water) is added to the well at a rate of 0.1 ml per minute. The amount of solution being added is constant. The behavior of the fish is then monitored continuously during the rest period beginning with the addition of the convulsant. At the point which the animal has a convulsion the addition is stopped and the animal removed. […] This dose is considered the convulsive dose (>97%) for teleost.

For `NC(=O)N1c2ccccc2C=Cc2ccccc21` [Carbamazepine], the “blocking seizure specific behavioral movements following electrical stimulation” value [1] was “capable of blocking seizure specific behavioral movements”.
With `C1CCc2nnnn2CC1` [PTZ, pentylenetetrazol] the “seizure in well with convulsant only” value ([2]; FIG. 5 lower left well, 6 mM PTZ) was “has seizure”, the “seizure evoked, share of fish” value ([3]; adult zebrafish immersed in 5 mM PTZ, within 30 minutes of addition, 10 fish) was 100% and the “terminal concentration at which the animal has a convulsion (minimum seizure threshold dose, CD50)” value ([3]; zebrafish, 20 mM PTZ solution added at 0.1 ml per minute to 5 ml tank water) was “around 6 mM”. The “terminal concentration at which the animal has a convulsion (minimum seizure threshold dose, CD50)” value [4] was 10 mM.
For `CCCC(CCC)C(=O)O` [Valproate, valproic acid], the “seizure in well with convulsant and anticonvulsant” value ([2]; FIG. 5 lower right well, 6 mM PTZ and Valproate 5 mM) was “Only the fish in the lower left well has seizure” and the “seizure in well with anticonvulsant only” value ([2]; FIG. 5 upper right well, only valproate 5 mM, no convulsant) was “Only the fish in the lower left well has seizure”.
In the case of `NC(=O)OCC(COC(N)=O)c1ccccc1` [felbamate], the “blocking seizure specific behavioral movements following electrical stimulation” value [1] is reported as “capable of blocking seizure specific behavioral movements”.
In the case of `NCC1(CC(=O)O)CCCCC1` [gabapentin], the “blocking seizure specific behavioral movements following electrical stimulation” value [1] is reported as “capable of blocking seizure specific behavioral movements”.
In the case of `O=C1NC(=O)C(c2ccccc2)(c2ccccc2)N1` [phenytoin], the “blocking seizure specific behavioral movements following electrical stimulation” value [1] is reported as “capable of blocking seizure specific behavioral movements”.
